The source made the active and inactive calls.
Legend:
[1] = biological target: Tyrosine-protein kinase ABL2 (Homo sapiens, UniProt P42684)
[2] = biological target: T1, Beta-adrenergic receptor kinase 1 (Homo sapiens, UniProt P25098)
T1 sequence (P25098 whole entry): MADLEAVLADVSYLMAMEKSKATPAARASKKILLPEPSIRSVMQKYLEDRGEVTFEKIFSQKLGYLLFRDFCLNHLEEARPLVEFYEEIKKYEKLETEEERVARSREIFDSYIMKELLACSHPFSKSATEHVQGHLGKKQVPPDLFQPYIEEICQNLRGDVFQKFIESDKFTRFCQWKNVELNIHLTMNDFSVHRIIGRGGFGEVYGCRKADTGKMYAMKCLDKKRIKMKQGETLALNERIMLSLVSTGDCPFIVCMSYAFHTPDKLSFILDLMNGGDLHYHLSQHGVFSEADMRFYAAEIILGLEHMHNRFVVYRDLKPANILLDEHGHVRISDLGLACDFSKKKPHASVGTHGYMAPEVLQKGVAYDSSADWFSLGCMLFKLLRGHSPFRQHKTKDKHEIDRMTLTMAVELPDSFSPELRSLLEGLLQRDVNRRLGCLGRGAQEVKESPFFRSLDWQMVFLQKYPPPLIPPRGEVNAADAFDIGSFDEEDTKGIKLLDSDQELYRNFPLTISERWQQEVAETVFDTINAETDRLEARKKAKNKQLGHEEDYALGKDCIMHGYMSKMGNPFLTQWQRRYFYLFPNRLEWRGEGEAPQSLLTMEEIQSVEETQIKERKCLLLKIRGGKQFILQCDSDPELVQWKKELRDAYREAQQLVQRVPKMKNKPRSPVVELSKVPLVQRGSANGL

[3] = biological target: T2, Serine/threonine-protein kinase A-Raf (Homo sapiens, UniProt P10398)
T2 sequence (P10398 whole entry): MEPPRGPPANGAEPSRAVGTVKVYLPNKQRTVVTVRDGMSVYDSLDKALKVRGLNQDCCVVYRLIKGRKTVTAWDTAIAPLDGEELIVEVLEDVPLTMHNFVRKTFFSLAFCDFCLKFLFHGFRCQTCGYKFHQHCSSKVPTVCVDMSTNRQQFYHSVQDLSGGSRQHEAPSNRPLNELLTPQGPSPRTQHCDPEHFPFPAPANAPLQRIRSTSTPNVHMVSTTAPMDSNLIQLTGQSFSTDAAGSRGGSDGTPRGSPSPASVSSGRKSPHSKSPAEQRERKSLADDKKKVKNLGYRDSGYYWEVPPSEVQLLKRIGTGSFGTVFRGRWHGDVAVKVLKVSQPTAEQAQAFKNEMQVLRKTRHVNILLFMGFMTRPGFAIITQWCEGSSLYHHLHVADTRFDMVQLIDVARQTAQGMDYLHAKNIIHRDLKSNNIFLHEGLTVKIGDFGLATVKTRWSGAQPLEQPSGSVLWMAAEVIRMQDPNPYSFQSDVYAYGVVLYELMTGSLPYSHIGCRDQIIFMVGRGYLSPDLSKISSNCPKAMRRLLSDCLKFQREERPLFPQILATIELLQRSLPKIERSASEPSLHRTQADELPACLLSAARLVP

[4] = biological target: Serine/threonine-protein kinase/endoribonuclease IRE2 (Homo sapiens, UniProt Q76MJ5)
Chain of Serine/threonine-protein kinase/endoribonuclease IRE2 (Q76MJ5 whole entry): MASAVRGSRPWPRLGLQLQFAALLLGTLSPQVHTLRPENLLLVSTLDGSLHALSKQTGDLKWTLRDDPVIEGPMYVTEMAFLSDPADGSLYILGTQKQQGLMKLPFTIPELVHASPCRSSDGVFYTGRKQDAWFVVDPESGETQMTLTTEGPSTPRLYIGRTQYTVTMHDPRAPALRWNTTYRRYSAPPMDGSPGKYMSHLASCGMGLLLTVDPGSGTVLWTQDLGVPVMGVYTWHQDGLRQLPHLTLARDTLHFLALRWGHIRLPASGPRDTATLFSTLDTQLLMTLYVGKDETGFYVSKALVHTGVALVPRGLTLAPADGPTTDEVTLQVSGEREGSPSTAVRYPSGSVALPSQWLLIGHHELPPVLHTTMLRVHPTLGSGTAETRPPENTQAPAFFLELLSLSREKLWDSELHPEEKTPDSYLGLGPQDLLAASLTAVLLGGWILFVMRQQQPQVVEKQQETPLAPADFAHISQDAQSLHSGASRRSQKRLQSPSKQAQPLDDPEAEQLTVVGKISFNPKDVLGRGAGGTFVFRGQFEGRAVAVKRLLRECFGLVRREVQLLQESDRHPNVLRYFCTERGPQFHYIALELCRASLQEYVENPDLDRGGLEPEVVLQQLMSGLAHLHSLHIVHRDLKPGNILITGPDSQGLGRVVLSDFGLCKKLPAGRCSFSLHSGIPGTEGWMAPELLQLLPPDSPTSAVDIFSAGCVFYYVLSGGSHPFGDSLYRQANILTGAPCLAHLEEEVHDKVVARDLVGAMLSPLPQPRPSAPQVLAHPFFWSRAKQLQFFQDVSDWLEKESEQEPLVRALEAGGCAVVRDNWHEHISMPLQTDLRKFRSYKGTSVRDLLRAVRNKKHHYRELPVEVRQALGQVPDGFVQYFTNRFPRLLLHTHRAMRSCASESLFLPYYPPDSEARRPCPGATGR

[5] = biological target: 5'-AMP-activated protein kinase catalytic subunit alpha-1 (Homo sapiens, UniProt Q13131)
Chain of 5'-AMP-activated protein kinase catalytic subunit alpha-1 (Q13131 whole entry): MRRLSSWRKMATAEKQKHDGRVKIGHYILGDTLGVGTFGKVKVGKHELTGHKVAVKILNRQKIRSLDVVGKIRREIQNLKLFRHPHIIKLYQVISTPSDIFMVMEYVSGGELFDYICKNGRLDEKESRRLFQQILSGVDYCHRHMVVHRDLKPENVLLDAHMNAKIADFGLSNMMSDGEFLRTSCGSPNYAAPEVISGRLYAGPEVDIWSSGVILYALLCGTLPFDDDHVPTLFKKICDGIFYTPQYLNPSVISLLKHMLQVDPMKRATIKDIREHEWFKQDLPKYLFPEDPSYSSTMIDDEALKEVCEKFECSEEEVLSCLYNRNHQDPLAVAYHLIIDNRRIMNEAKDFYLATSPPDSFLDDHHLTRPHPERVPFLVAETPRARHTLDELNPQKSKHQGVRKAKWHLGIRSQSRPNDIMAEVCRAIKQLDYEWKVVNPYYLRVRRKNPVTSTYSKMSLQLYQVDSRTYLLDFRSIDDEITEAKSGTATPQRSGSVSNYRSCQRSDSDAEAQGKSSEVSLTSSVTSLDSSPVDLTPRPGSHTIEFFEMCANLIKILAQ

[6] = biological target: Ribosomal protein S6 kinase alpha-3 (Homo sapiens, UniProt P51812)
Chain of Ribosomal protein S6 kinase alpha-3 (P51812 whole entry): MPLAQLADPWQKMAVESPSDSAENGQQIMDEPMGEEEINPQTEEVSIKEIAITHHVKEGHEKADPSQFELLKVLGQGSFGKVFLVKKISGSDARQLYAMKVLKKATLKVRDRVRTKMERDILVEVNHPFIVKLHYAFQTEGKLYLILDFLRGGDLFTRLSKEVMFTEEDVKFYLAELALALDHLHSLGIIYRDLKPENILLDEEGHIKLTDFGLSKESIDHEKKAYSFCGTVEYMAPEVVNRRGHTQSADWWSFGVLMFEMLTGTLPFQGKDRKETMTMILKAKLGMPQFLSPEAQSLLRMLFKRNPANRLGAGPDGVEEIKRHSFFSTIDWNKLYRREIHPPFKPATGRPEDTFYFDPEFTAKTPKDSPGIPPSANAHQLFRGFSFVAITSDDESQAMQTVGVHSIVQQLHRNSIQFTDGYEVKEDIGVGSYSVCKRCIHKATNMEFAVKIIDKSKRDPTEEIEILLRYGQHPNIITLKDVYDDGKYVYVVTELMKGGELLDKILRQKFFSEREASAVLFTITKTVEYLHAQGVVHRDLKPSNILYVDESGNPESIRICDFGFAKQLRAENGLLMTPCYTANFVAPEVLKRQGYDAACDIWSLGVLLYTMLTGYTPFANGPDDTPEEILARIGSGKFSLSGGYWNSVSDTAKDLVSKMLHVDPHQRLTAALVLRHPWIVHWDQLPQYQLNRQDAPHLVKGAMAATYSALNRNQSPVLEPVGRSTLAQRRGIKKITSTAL

[7] = biological target: T3, Structural maintenance of chromosomes protein 1A (Homo sapiens, UniProt Q14683)
T3 sequence (Q14683 whole entry): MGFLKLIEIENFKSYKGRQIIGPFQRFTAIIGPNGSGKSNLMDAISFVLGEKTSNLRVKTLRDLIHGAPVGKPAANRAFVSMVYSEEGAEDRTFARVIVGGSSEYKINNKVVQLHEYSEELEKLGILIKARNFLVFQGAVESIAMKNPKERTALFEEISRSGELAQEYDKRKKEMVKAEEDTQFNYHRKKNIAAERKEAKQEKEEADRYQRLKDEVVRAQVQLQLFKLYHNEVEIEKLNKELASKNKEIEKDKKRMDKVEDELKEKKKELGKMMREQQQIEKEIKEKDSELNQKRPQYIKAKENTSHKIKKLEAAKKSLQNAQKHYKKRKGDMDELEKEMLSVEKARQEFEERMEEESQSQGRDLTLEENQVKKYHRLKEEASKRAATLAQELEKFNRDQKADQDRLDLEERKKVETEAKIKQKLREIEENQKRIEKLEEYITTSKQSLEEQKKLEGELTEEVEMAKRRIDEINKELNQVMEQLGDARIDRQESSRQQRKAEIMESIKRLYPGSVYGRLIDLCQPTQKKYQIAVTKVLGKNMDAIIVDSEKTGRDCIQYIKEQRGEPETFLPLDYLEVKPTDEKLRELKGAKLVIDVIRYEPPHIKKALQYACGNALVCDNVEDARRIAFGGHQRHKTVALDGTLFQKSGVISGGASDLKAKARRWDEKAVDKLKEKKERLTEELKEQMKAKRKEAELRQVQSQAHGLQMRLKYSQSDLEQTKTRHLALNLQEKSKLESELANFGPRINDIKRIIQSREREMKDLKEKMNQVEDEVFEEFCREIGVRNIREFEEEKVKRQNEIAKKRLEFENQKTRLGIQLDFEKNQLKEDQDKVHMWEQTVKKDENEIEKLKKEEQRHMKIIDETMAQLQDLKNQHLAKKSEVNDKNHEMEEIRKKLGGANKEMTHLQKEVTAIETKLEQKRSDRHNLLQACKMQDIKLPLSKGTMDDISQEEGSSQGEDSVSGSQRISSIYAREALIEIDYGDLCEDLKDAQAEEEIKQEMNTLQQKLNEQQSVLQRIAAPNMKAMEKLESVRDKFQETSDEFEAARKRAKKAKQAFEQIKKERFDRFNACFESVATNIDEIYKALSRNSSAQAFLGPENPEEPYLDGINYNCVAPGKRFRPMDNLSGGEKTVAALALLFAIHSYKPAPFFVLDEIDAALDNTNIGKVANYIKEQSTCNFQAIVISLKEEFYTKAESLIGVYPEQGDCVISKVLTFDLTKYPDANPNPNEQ

[8] = biological target: DNA topoisomerase 2-alpha (Homo sapiens, UniProt P11388)
Chain of DNA topoisomerase 2-alpha (P11388 whole entry): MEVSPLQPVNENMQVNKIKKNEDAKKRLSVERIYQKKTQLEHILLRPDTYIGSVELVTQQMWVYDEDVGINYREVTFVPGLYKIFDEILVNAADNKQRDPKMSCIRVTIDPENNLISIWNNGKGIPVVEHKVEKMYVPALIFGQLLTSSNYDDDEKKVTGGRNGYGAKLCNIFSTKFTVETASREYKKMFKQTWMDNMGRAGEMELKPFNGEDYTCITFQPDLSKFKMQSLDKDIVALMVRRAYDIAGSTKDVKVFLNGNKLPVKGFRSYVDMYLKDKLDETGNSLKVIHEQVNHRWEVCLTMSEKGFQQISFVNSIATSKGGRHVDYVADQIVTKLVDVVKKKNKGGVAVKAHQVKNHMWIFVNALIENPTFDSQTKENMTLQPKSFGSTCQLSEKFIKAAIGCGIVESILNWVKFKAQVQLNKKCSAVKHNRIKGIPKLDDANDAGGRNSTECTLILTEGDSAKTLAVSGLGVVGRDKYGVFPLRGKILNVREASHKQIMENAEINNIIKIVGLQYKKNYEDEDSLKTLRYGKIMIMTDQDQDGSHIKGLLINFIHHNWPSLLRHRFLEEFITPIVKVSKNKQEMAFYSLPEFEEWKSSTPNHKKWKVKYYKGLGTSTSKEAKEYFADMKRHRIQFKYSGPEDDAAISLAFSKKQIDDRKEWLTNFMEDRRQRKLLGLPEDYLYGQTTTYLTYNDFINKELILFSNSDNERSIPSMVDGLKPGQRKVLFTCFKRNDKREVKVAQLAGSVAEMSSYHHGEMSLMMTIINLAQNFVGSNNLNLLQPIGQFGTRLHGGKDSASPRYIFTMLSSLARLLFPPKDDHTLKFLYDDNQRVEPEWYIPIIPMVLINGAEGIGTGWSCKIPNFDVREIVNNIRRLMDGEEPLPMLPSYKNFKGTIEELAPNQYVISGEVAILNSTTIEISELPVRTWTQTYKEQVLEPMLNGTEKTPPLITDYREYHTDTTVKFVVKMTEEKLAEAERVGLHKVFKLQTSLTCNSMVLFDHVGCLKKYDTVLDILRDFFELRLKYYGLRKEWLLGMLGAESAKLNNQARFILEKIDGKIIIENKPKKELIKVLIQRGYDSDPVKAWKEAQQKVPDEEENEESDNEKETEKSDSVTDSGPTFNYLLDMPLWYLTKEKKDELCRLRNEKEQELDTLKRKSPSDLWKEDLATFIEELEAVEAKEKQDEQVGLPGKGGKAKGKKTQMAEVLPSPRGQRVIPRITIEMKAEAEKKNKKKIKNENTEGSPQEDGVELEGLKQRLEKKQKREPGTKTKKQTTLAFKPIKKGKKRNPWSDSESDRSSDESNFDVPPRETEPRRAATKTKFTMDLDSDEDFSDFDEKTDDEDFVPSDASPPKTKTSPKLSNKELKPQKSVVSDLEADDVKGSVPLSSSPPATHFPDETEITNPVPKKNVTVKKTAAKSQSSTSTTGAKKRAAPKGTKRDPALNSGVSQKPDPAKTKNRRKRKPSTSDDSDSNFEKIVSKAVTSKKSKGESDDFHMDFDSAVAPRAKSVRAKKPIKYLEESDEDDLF

[9] = biological target: Fibroblast growth factor receptor 1 (Homo sapiens, UniProt P11362)
Also: in the data inactive means no Kd found up to 30 µM.

Chain of Tyrosine-protein kinase ABL2 (P42684 whole entry): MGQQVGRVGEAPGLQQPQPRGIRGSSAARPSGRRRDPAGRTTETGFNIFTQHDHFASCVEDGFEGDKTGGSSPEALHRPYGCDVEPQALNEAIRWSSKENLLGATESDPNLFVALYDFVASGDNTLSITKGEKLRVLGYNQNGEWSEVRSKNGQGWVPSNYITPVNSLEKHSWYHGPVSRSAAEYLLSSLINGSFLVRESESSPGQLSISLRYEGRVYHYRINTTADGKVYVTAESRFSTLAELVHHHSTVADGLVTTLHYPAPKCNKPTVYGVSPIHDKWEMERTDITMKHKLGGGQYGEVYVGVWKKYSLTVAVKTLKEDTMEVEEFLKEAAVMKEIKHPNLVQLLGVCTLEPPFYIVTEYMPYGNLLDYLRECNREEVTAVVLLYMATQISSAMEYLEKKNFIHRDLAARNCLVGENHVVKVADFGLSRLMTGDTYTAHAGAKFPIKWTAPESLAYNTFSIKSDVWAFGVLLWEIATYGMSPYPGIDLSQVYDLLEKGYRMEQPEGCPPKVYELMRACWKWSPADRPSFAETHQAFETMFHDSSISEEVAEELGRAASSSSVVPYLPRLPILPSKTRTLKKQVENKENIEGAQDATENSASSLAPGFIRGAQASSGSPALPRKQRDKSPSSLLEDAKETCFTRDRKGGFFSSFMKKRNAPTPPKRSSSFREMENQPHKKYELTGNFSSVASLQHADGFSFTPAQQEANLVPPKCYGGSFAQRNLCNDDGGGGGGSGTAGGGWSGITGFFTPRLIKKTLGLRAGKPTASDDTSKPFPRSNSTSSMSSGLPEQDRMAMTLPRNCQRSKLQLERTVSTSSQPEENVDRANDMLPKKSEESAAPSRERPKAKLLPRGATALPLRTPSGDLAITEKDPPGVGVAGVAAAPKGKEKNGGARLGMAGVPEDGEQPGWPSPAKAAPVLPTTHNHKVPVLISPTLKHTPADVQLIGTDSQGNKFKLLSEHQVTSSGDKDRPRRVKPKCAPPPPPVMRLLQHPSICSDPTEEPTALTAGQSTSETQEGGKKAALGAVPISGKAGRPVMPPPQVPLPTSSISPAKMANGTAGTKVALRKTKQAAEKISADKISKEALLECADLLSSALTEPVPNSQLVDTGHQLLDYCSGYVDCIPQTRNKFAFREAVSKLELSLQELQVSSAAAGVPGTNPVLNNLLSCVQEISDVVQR

Row | Kd [1] | Kd [2] | Kd [3] | Kd [4] | Kd [5] | Kd [6] | Kd [7] | Kd [8] | Kd [9] | Structure (SMILES)
1 | > 30 µM (inactive) | > 30 µM (inactive) | > 30 µM (inactive) | > 30 µM (inactive) | – | – | > 30 µM (inactive) | > 30 µM (inactive) | – | CCc1cnn2c(NCc3ccc[n+]([O-])c3)cc(N3CCCC[C@H]3CCO)nc12 [DINACICLIB]
2 | – | > 30 µM (inactive) | > 30 µM (inactive) | > 30 µM (inactive) | > 30 µM (inactive) | – | > 30 µM (inactive) | > 30 µM (inactive) | – | Cc1cc(Nc2cc(N3CCN(C)CC3)nc(/C=C/c3ccccc3)n2)n[nH]1 [ENMD-2076]
3 | > 30 µM (inactive) | > 30 µM (inactive) | > 30 µM (inactive) | > 30 µM (inactive) | > 30 µM (inactive) | > 30 µM (inactive) | – | – | > 30 µM (inactive) | Cn1cc(-c2ccc(F)c(C(F)(F)F)c2)nc1C1CCN(c2ncnc3[nH]ncc23)CC1 [LY-2584702]
4 | > 30 µM (inactive) | > 30 µM (inactive) | > 30 µM (inactive) | > 30 µM (inactive) | – | – | – | > 30 µM (inactive) | – | OCCn1cc(-c2cnc3nnn(Cc4ccc5ncccc5c4)c3n2)cn1 [PF-04217903]

More lines, now with the values behind:

Row | Structure (SMILES) | Kd [1] | Kd [2] | Kd [3] | Kd [4] | Kd [5] | Kd [6] | Kd [7] | Kd [8] | Kd [9]
5 | COc1cc(CCc2cc(NC(=O)c3ccc(N4C[C@@H](C)N[C@@H](C)C4)cc3)n[nH]2)cc(OC)c1 [AZD-4547] | > 30 µM (inactive) | > 30 µM (inactive) | > 30 µM (inactive) | > 30 µM (inactive) | > 30 µM (inactive) | > 30 µM (inactive) | > 30 µM (inactive) | > 30 µM (inactive) | –
6 | Cc1ccc(NC(=O)c2ccc(CN3CC[C@H](N(C)C)C3)c(C(F)(F)F)c2)cc1Nc1nccc(-c2cncnc2)n1 [BAFETINIB] | – | > 30 µM (inactive) | 2.89 µM (active) | > 30 µM (inactive) | > 30 µM (inactive) | > 30 µM (inactive) | > 30 µM (inactive) | – | > 30 µM (inactive)
7 | Cc1nc(N)sc1-c1ccnc(Nc2ccc(N3CCOCC3)cc2)n1 [CYC-116] | > 30 µM (inactive) | > 30 µM (inactive) | > 30 µM (inactive) | > 30 µM (inactive) | – | – | > 30 µM (inactive) | > 30 µM (inactive) | –
8 | CN1CCN(c2ccc3nc(-c4c(N)c5c(F)cccc5[nH]c4=O)[nH]c3c2)CC1 [DOVITINIB] | – | > 30 µM (inactive) | > 30 µM (inactive) | > 30 µM (inactive) | – | – | > 30 µM (inactive) | – | –
9 | CCn1c(-c2nonc2N)nc2c(C#CC(C)(C)O)ncc(OC[C@H]3CCCNC3)c21 [GSK-690693] | – | > 30 µM (inactive) | > 30 µM (inactive) | > 30 µM (inactive) | – | – | > 30 µM (inactive) | > 30 µM (inactive) | –
10 | Cc1cn(-c2cc(NC(=O)c3ccc(C)c(Nc4nccc(-c5cccnc5)n4)c3)cc(C(F)(F)F)c2)cn1 [NILOTINIB] | – | > 30 µM (inactive) | > 30 µM (inactive) | > 30 µM (inactive) | – | – | > 30 µM (inactive) | > 30 µM (inactive) | –
11 | CNC(=O)c1cc(Oc2ccc(NC(=O)Nc3ccc(Cl)c(C(F)(F)F)c3)c(F)c2)ccn1 [REGORAFENIB] | > 30 µM (inactive) | > 30 µM (inactive) | > 30 µM (inactive) | > 30 µM (inactive) | > 30 µM (inactive) | > 30 µM (inactive) | > 30 µM (inactive) | > 30 µM (inactive) | –
12 | O=C(Nc1cccc(Cl)c1)Nc1ncc(CCNc2ncnc3ccsc23)s1 [SNS-314] | > 30 µM (inactive) | – | > 30 µM (inactive) | > 30 µM (inactive) | – | – | > 30 µM (inactive) | > 30 µM (inactive) | –
13 | Nc1nc(N)c2nc(-c3cccc(O)c3)c(-c3cccc(O)c3)nc2n1 [TG100-115] | – | > 30 µM (inactive) | > 30 µM (inactive) | > 30 µM (inactive) | – | – | – | > 30 µM (inactive) | –
14 | COc1cc2nccc(Oc3ccc(NC(=O)Nc4cc(C)on4)c(Cl)c3)c2cc1OC [TIVOZANIB] | 0.302 µM (active) | > 30 µM (inactive) | – | > 30 µM (inactive) | > 30 µM (inactive) | > 30 µM (inactive) | > 30 µM (inactive) | > 30 µM (inactive) | –

Reference: ChEMBL document CHEMBL3991601, “The target landscape of clinical kinase drugs” (Science, 2017)
